Test results published in the NIST ThermoML archive (doi:10.1021/je0340755).

Test: xn = mol fraction of the nth substance listed
Settings: 101.3 kPa, Liquid; for viscosity: Capillary tube (Ostwald / Ubbelohde) method

CCC(O)CO (stereo not given) [1,2-butanediol] + O
Settings	mass density [kg/m3]	speed of sound [m/s]	viscosity [mPa·s]
298.15 K, x2 = 0.0471	999.56	1455.6	54.4
298.15 K, x2 = 0.1478	1001.36	1480.8	47.22
298.15 K, x2 = 0.2481	1003.09	1497.6	39.78
298.15 K, x2 = 0.3491	1005.12	1517.2	32.56
298.15 K, x2 = 0.443	1007.55	1545.9	26.42
298.15 K, x2 = 0.4971	1009.14	1564.2	23.17
298.15 K, x2 = 0.5552	1010.88	1581.1	19.92
298.15 K, x2 = 0.6494	1013.49	1600.3	15.11
298.15 K, x2 = 0.7491	1015.73	1622.2	10.48
298.15 K, x2 = 0.8547	1016.98	1666.2	5.959
298.15 K, x2 = 0.9081	1015.65	1670.6	3.869
298.15 K, x2 = 0.9144	1015.26	1667.8	3.635
298.15 K, x2 = 0.9255	1014.39	1660.6	3.232
298.15 K, x2 = 0.9353	1013.39	1651	2.885
298.15 K, x2 = 0.9543	1010.65	1623.1	2.241
298.15 K, x2 = 0.9562	1010.3	1619.5	2.179
298.15 K, x2 = 0.9598	1009.61	1612.5	2.063
298.15 K, x2 = 0.97	1007.33	1589.6	1.743
298.15 K, x2 = 0.9806	1004.38	1561	1.425
298.15 K, x2 = 0.9902	1001.1	1531.6	1.152
298.15 K, x2 = 0.9923	1000.29	1524.8	1.095
298.15 K, x2 = 0.9956	998.96	1513.5	1.006
308.15 K, x2 = 0.0471	992.15	1426	28.67
308.15 K, x2 = 0.1478	993.92	1443.9	25.18
308.15 K, x2 = 0.2481	995.73	1452.8	21.61
308.15 K, x2 = 0.3491	997.81	1474	18.1
308.15 K, x2 = 0.443	1000.17	1496.6	15.04
308.15 K, x2 = 0.4971	1001.68	1508.1	13.39
308.15 K, x2 = 0.5552	1003.37	1519.5	11.69
308.15 K, x2 = 0.6494	1006.11	1542.9	9.091
308.15 K, x2 = 0.7491	1008.77	1585.6	6.504
308.15 K, x2 = 0.8547	1010.49	1640.7	3.9
308.15 K, x2 = 0.9081	1009.43	1647.5	2.651
308.15 K, x2 = 0.9144	1009.1	1645.9	2.509
308.15 K, x2 = 0.9255	1008.36	1641.4	2.26
308.15 K, x2 = 0.9353	1007.51	1635.3	2.044
308.15 K, x2 = 0.9543	1005.2	1617.1	1.635
308.15 K, x2 = 0.9562	1004.91	1614.7	1.594
308.15 K, x2 = 0.9598	1004.33	1610	1.519
308.15 K, x2 = 0.97	1002.44	1594.4	1.308
308.15 K, x2 = 0.9806	1000	1574.5	1.094
308.15 K, x2 = 0.9902	997.32	1552.8	0.906
308.15 K, x2 = 0.9923	996.67	1547.5	0.865
308.15 K, x2 = 0.9956	995.58	1538.9	0.802
318.15 K, x2 = 0.0471	984.63	1396.5	16.54
318.15 K, x2 = 0.1478	986.4	1415	14.53
318.15 K, x2 = 0.2481	988.13	1422.4	12.47
318.15 K, x2 = 0.3491	990.15	1441.3	10.46
318.15 K, x2 = 0.443	992.53	1462.7	8.706
318.15 K, x2 = 0.4971	994.08	1474.1	7.758
318.15 K, x2 = 0.5552	995.8	1485.9	6.789
318.15 K, x2 = 0.6494	998.48	1510	5.314
318.15 K, x2 = 0.7491	1001.03	1553.8	3.848
318.15 K, x2 = 0.8547	1003.2	1614.7	2.378
318.15 K, x2 = 0.9081	1003	1630.6	1.675
318.15 K, x2 = 0.9144	1002.81	1630.5	1.595
318.15 K, x2 = 0.9255	1002.34	1629	1.455
318.15 K, x2 = 0.9353	1001.75	1626	1.334
318.15 K, x2 = 0.9543	999.98	1614.7	1.105
318.15 K, x2 = 0.9562	999.74	1613.2	1.083
318.15 K, x2 = 0.9598	999.27	1610	1.041
318.15 K, x2 = 0.97	997.69	1599	0.923
318.15 K, x2 = 0.9806	995.59	1584.6	0.804
318.15 K, x2 = 0.9902	993.21	1568.4	0.699
318.15 K, x2 = 0.9923	992.62	1564.4	0.677
318.15 K, x2 = 0.9956	991.63	1557.9	0.642
328.15 K, x2 = 0.0471	976.76	1381.6	10.36
328.15 K, x2 = 0.1478	978.45	1392.6	9.126
328.15 K, x2 = 0.2481	980.12	1404	7.863
328.15 K, x2 = 0.3491	982.09	1421.6	6.626
328.15 K, x2 = 0.443	984.39	1440	5.547
328.15 K, x2 = 0.4971	985.9	1450.7	4.962
328.15 K, x2 = 0.5552	987.59	1464.3	4.363
328.15 K, x2 = 0.6494	990.29	1490.7	3.447
328.15 K, x2 = 0.7491	993	1532.6	2.533
328.15 K, x2 = 0.8547	995.64	1592.7	1.615
328.15 K, x2 = 0.9081	995.96	1611.9	1.177
328.15 K, x2 = 0.9144	995.86	1612.7	1.127
328.15 K, x2 = 0.9255	995.56	1612.9	1.04
328.15 K, x2 = 0.9353	995.14	1611.8	0.964
328.15 K, x2 = 0.9543	993.79	1604.2	0.821
328.15 K, x2 = 0.9562	993.61	1603.4	0.807
328.15 K, x2 = 0.9598	993.23	1601.5	0.781
328.15 K, x2 = 0.97	991.96	1594	0.707
328.15 K, x2 = 0.9806	990.23	1583.2	0.633
328.15 K, x2 = 0.9902	988.23	1571.2	0.568
328.15 K, x2 = 0.9923	987.73	1568.9	0.554
328.15 K, x2 = 0.9956	986.9	1563.4	0.532
338.15 K, x2 = 0.0471	968.75	1365.8	6.896
338.15 K, x2 = 0.1478	970.35	1376.1	6.061
338.15 K, x2 = 0.2481	971.96	1387.3	5.201
338.15 K, x2 = 0.3491	973.85	1402.7	4.361
338.15 K, x2 = 0.443	976.07	1420.1	3.638
338.15 K, x2 = 0.4971	977.53	1430.2	3.251
338.15 K, x2 = 0.5552	979.18	1443.6	2.859
338.15 K, x2 = 0.6494	981.87	1468.5	2.268
338.15 K, x2 = 0.7491	984.71	1507.6	1.689
338.15 K, x2 = 0.8547	987.72	1565.4	1.114
338.15 K, x2 = 0.9081	988.49	1587.3	0.843
338.15 K, x2 = 0.9144	988.47	1588.5	0.812
338.15 K, x2 = 0.9255	988.32	1590.4	0.759
338.15 K, x2 = 0.9353	988.06	1591	0.713
338.15 K, x2 = 0.9543	987.1	1588.9	0.626
338.15 K, x2 = 0.9562	986.96	1588.1	0.618
338.15 K, x2 = 0.9598	986.68	1587.6	0.602
338.15 K, x2 = 0.97	985.68	1583.6	0.558
338.15 K, x2 = 0.9806	984.29	1577.1	0.514
338.15 K, x2 = 0.9902	982.66	1570.2	0.476
338.15 K, x2 = 0.9923	982.25	1568	0.467
338.15 K, x2 = 0.9956	981.55	1564.9	0.455
